Measured values: patent EP0265185A2, “Cephalosporins, processes for their preparation and pharmaceutical compositions containing them” (BEECHAM GROUP PLC, priority 1986, dated 1988)
≈ marks a conversion by molar mass, not a printed value. Structures can show the parent of a compound that is named as a salt. Where two headings read alike, the source gives them in different places.

Tests used:
Enterobacter cloacae P99 = test: Minimum inhibitory concentration by serial dilution in agar; type: cell-based
Procedure: (§1) Minimum inhibitory Concentration (MIC) values of compounds of the invention against Enterobacter cloacae P99 and Pseudomonas aeruginosa 10662 were determined by serial dilution in agar. The plates were inoculated with 104 colony forming units and incubated overnight at 37°C. The MIC values recorded in Tables 1 and 2 were the lowest concentration of antibiotic to inhibit growth.

[1] = system: Pseudomonas aeruginosa 10662; test: as above; type: cell-based
Procedure: as §1

[2] = Pseudomonas aeruginosa 10662, serial dilution in agar, inoculated with 104 colony forming units, incubated overnight at 37°C, lowest concentration to inhibit growth, read-out: MIC

Compound	MIC (Enterobacter cloacae P99) [µg/mL]	MIC [1, 2] [µg/mL]	MIC ([1]; Pseudomonas aeruginosa, 10662) [µg/mL]
CO/N=C(\C(=O)N[C@@H]1C(=O)N2C(C(=O)O)=C(COC(C)=O)CS[C@H]12)c1csc(N)n1 [Compound A, cefotaxime, reference compound]	≥ 128	16 (≈ 35.1 µM)	–
CCN1CCN(C(=O)N[C@@H](C(=O)N[C@]2(NC=O)C(=O)N3C(C(=O)O)=C(COC(C)=O)CS[C@@H]32)c2ccccc2)C(=O)C1=O [Compound B, 7β-[D-2-[(4-ethyl-2,3-dioxopiperazin-1-yl)carbonylamino]-2-phenylacetamido]-7α-formamidocephalosporanic acid, sodium salt, reference compound]	16	16	–
CCN1CCN(C(=O)N[C@@H](C(=O)N[C@]2(NC=O)C(=O)N3C(C(=O)[O-])=C(COC(=O)c4ccc(O)c(O)c4)CS[C@@H]32)c2ccccc2)C(=O)C1=O.[Na+] [Example 1, Sodium (6R,7R)-3-(3,4-Dihydroxybenzoyloxy)methyl-7-[(R)-2-(4-ethyl-2,3-dioxopiperazin-1-yl)carbonylamino-2-phenylacetamido]-7-formamidoceph-3-em-4-carboxylate]	0.12	–	≤ 0.03
CCN1CCN(C(=O)N[C@@H](C(=O)N[C@]2(NC=O)C(=O)N3C(C(=O)[O-])=C(CN=[N+]=[N-])CS[C@@H]32)c2ccccc2)C(=O)C1=O.[Na+] [Example 3, Sodium (6R,7R)-3-Azidomethyl-7-[(R)-2-(4-ethyl-2,3-dioxopiperazin-1-ylcarbonylamino)-2-phenylacetamido]-7-formamidoceph-3-em-4-carboxylate]	4	–	4
CCN1CCN(C(=O)N[C@@H](C(=O)N[C@]2(NC=O)C(=O)N3C(C(=O)[O-])=C(CNC(=O)/C=C/c4ccc(OC(C)=O)c(OC(C)=O)c4)CS[C@@H]32)c2ccccc2)C(=O)C1=O.[Na+] [Example 6, Sodium (6R,7R)-3-[(E)-3,4-Diacetoxycinnamoyl]aminomethyl-7-[(R)-2-(4-ethyl-2,3-dioxopiperazin-1-ylcarbonylamino)-2-phenylacetamido]-7-formamido-ceph-3-em-4-carboxylate]	0.5	–	0.12
CCN1CCN(C(=O)N[C@@H](C(=O)N[C@]2(NC=O)C(=O)N3C(C(=O)[O-])=C(CNC(=O)c4ccc(O)c(O)c4)CS[C@@H]32)c2ccccc2)C(=O)C1=O.[Na+] [Example 7, Sodium (6R,7R)-3-(3,4-Dihydroxybenzoyl)aminomethyl7-[(R)-2-(4-ethyl-2,3-dioxopiperazin-1-ylcarbonylamino) -2-phenylacetamido]-7-formamido-ceph-3-em-4-carboxylate]	0.25	–	≤ 0.03
CO/N=C(\C(=O)N[C@@H]1C(=O)N2C(C(=O)[O-])=C(COC(=O)c3ccc(O)c(O)c3)CS[C@H]12)c1csc(N)n1.[Na+] [Example 10, Sodium (6R,7R)-7-[2-(2-amino-4-thiazolyl)-2-((Z)-methoxyimino)acetamido]-3-(3,4-dihydroxybenzoyloxy)methylceph-3-em-4-carboxylate]	4	–	0.12
